# Measured values published in patent publication EP4737449A1 (Changchun Genescience Pharmaceutical Co., Ltd., priority 2023, dated 2025).
# Where two headings read alike, the source gives them in different places.
# Legend:
# p53-Y220C mutant protein = target: T1, p53-Y220C mutant protein (Homo sapiens, UniProt P04637, Y220C); assay: In vitro DNA binding activity assay (TR-FRET); type: biochemical; settings: concentration required to increase the binding activity of protein to DNA by 50%
# T1 construct: The recombinant Y220C p53 DBD protein with his-tag
# How it was run: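 SC150, the compound concentration increasing p53-Y220C DNA binding by 50% relative to vehicle, came from background-corrected 665/615 nm TR-FRET ratios. His-tagged DBD and compound were preincubated 60 min at RT before biotin-DNA plus Eu-anti-His/streptavidin-d2 detection overnight in the dark.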
# [1] = system: NUGC-3 human gastric cancer subcutaneous xenograft; assay: Efficacy in NUGC-3 human gastric cancer subcutaneous xenograft model; type: in vivo, BALB/c Nude mouse; settings: PO, 19 days
# Method: NUGC-3 cells were cultured in RPMI-1640 medium containing 10% FBS. NUGC-3 cells in the exponential growth phase were collected, the total amount of cells required was calculated, the cells were re-suspended in PBS to a suitable concentration and then an equal volume of Matrigel was added for subcutaneous tumor seeding in BALB/c Nude mice. The concentration of the cell suspension was 5x10^6/0.1 mL.
# 0.1 mL (5×10^6 NUGC-3 cells) of cell suspension (PBS : Matrigel = 1:1, V/V) was seeded subcutaneously on the right back of each mouse. When the tumor grew to have an average volume of 128.4 mm^3, group-based drug administration began (vehicle: 0.2% HPC + 0.5% Tween 80), and the average tumor volume of the enrolled animals was 146.1 mm^3.
# Table 11 Route, dose and regimen of administration in the subcutaneous xenograft model
# [2] = Associated plasma PK in the LU5269 xenograft study; type: in vivo, NOD/SCID mice; settings: mouse, PO, QD*21, plasma after the last administration
# Method: At the endpoint of the experiment, plasma samples from groups G2-G6 were collected: plasma was collected from the first 3 mice in each group at 0 h, 1 h, 2 h, and 4 h after the last administration; plasma was collected from the last 3 mice in each group at 0.5 h, 6 h, 9 h, and 24 h after the last administration.
# Table 12 Route, dose and regimen of administration in the subcutaneous xenograft model
# [3] = Pharmacokinetic study in SD rats; type: in vivo; settings: rat, plasma; for AUC(0-t) at 24 h / AUC(0-t): read-out: AUC0-24h
# Method: On the day of administration, the test sample was prepared using a 2% HPC + 5% solutol aqueous solution vehicle formula, and the drug solution was prepared and kept ready for use.
# The PO group was given the designated dose. The animals in the oral administration group were fasted overnight, allowed free access to water, and returned to food 3 hours after administration.
# The animals were weighed before administration, and the dose was calculated based on the body weight. The drug was administered once via PO on the day of administration. After administration in the PO group, blood was collected from the jugular vein at 0.083 h, 0.25 h, 0.5 h, 1.0 h, 2.0 h, 4.0 h, 6.0 h, 8.0 h and 24 h, about 200 µL each time, placed in EDTA-K2 anticoagulation blood collection tubes, centrifuged at 4000 rpm for 10 min (4°C), and plasma was separated within 1 h. The plasma was drawn into labeled EP tubes (the label should at least indicate the subject code, animal number, collection time, collection date, etc.), and stored at -80°C for testing. The process from blood collection to centrifugation was carried out in ice bath. The concentration of the test sample in SD rat plasma was detected using validated LC-MS/MS.
smiles,measurement,setting,value
"CN1CC[C@@H](Nc2cccc3c(CC(F)(F)F)c(C#CCNC(=O)c4cnn(C(C)(C)C)c4)nn23)[C@@H](F)C1 [Compound 001, 1-tert-butyl-N-[3-(7-{[(3S,4R)-3-fluoro-1-methylpiperidin-4-yl]amino}-3-(2,2,2-trifluoroethyl)pyrazolo[1,5-a]pyridin-2-yl)prop-2-yn-1-yl]-1H-pyrazole-4-carboxamide]",SC150,p53-Y220C mutant protein,10 nM
CN1CC[C@@H](Nc2cccc3c(CC(F)(F)F)c(C#CCNC(=O)c4cnn(C(C)(C)C)c4N)nn23)[C@@H](F)C1 [Compound 047],tumor volume inhibition rate TGI,"[1]; 50 mpk, BID",68%
same,tumor volume inhibition rate TGI,"[1]; 100 mpk, BID",93%
same,tumor volume inhibition rate TGI,"[1]; 150 mpk, BID",103%
same,tumor volume inhibition rate TGI,"[1]; 150 mpk, QD",91%
same,AUC(0-t),"[2]; 50 mg/kg, 50mpk",11700 ng·h/mL
same,Cmax,"[2]; 50 mg/kg, 50mpk",1690 ng/mL
same,half-life,"[2]; 50 mg/kg, 50mpk",132 min
same,AUC(0-t),"[2]; 75 mg/kg, 75mpk",24400 ng·h/mL
same,Cmax,"[2]; 75 mg/kg, 75mpk",2590 ng/mL
same,AUC(0-t),"[2]; 100 mg/kg, 100 mpk",39400 ng·h/mL
same,Cmax,"[2]; 100 mg/kg, 100 mpk",4440 ng/mL
same,half-life,"[2]; 100 mg/kg, 100 mpk",114 min
same,AUC(0-t),"[2]; 150 mg/kg, 150mpk",68000 ng·h/mL
same,Cmax,"[2]; 150 mg/kg, 150mpk",5550 ng/mL
same,half-life,"[2]; 150 mg/kg, 150mpk",156 min
same,Cmax,"[3]; 50 mg/kg, po 50 mpk",13200 ng/mL
same,AUC(0-t) at 24 h,"[3]; 50 mg/kg, po 50 mpk",113 µg·h/mL
same,Cmax,"[3]; 300 mg/kg, po 300 mpk",32800 ng/mL
same,AUC(0-t) at 24 h,"[3]; 300 mg/kg, po 300 mpk",431 µg·h/mL
same,SC150,p53-Y220C mutant protein,7 nM
"CCn1ncc(C(=O)NCC#Cc2nn3c(N[C@@H]4CCN(C)C[C@@H]4F)cccc3c2CC(F)(F)F)c1N [Compound 261, 5-amino-1-ethyl-N-[3-(7-{[(3S,4R)-3-fluoro-1-methylpiperidin-4-yl]amino}-3-(2,2,2-trifluoroethyl)pyrazolo[1,5-a]pyridin-2-yl)prop-2-yn-1-yl]-1H-pyrazole-4-carboxamide]",SC150,p53-Y220C mutant protein,6 nM
"CNC(=O)c1ccc(NCC#Cc2cc3c(N[C@@H]4CCN(C)C[C@@H]4F)cccc3n2CC(F)(F)F)c(OC)c1 [Control compound, reference compound]",tumor volume inhibition rate TGI,"[1]; 50 mpk, QD",52%
same,tumor volume inhibition rate TGI,"[1]; 100 mpk, QD",77%
same,AUC(0-t),"[2]; NOD/SCID, 100 mg/kg, 100 mpk",413000 ng·h/mL
same,Cmax,"[2]; NOD/SCID, 100 mg/kg, 100 mpk",24300 ng/mL
same,Cmax,"[3]; 50 mg/kg, po 50 mpk",11500 ng/mL
same,AUC(0-t),"[3]; 50 mg/kg, po 50 mpk",148 µg·h/mL
same,Cmax,"[3]; 300 mg/kg, po 300 mpk",25400 ng/mL
same,AUC(0-t),"[3]; 300 mg/kg, po 300 mpk",416 µg·h/mL
same,SC150,p53-Y220C mutant protein,14 nM
